From PubChem BioAssay (NCI)
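Values below derive from 48-hour exposures of cells grown in 96-well plates, with endpoints linearly interpolated between the two concentrations bracketing the appropriate inhibition level. At the GI50, growth is halved. TGI: total growth inhibition.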

What was measured:
Assay in all cases: NCI-60 cell line screen, 48 h
MCF7 breast = tested on: MCF7 breast
A498 renal = tested on: A498 renal
UO-31 renal = tested on: UO-31 renal
A549 NSCLC = tested on: A549 NSCLC
RXF 393 renal = tested on: RXF 393 renal
T-47D breast = tested on: T-47D breast
MDA-MB-435 = tested on: MDA-MB-435
MOLT-4 leukemia = tested on: MOLT-4 leukemia
LOX IMVI melanoma = tested on: LOX IMVI melanoma
COLO 205 colon = tested on: COLO 205 colon
TK-10 renal = tested on: TK-10 renal
HS 578T breast = tested on: HS 578T breast

Row | SMILES | TGI (MCF7 breast) [µM] | TGI (A498 renal) [µM] | TGI (UO-31 renal) [µM] | TGI (A549 NSCLC) [µM] | TGI (RXF 393 renal) [µM] | TGI (T-47D breast) [µM] | TGI (MDA-MB-435) [µM] | TGI (MOLT-4 leukemia) [µM] | TGI (LOX IMVI melanoma) [µM] | TGI (COLO 205 colon) [µM] | TGI (TK-10 renal) [µM] | TGI (HS 578T breast) [µM] | GI50 (MDA-MB-435) [µM]
1 | CC1(C)OCC2OC3([C@H](O)CCO)OC(C)(C)OC3C2O1 (stereo not given in full) | > 100 | > 100 | > 100 | > 100 | > 100 | > 100 | > 100 | > 100 | > 100 | > 100 |  |  | 
2 | CN1N=C2c3ccccc3CC[C@H]2C1c1ccccc1 (stereo not given in full) |  | > 100 | > 100 | > 100 | 81.5 |  |  | > 100 | > 100 | > 100 | > 100 |  | 
3 | O=[N+]([O-])c1ccc(NC2OCC(O)C(O)C2O)cc1 (stereo not given) |  | > 100 | > 100 | > 100 | > 100 |  |  | > 100 | > 100 | > 100 | > 100 |  | 
4 | O=C(CCCCCCCCC(=O)NN1C(=O)/C(=C\c2ccc(O)c(O)c2)SC1c1c(O)ccc2ccccc12)NN1C(=O)C(=Cc2ccc(O)c(O)c2)SC1c1c(O)ccc2ccccc12 (stereo not given) | > 100 | 75.9 | 26.8 | > 37.1 | > 57.6 | 62.1 | > 100 | > 29.8 | 13 | 73.5 | > 100 |  | 
5 | CC1=C(C2=C(C)C(=O)C(=O)c3cc(C)ccc32)c2ccc(C)cc2C(=O)C1=O |  | 3.25 | 0.305 | 2.73 | 0.62 |  |  |  | > 100 | 0.525 | 1.2 | 0.863 | 
6 | NC(=O)N/N=C(\Cc1nc2ccc(C(=O)c3ccccc3)cc2[nH]c1=O)C(=O)Nc1ccc(Br)cc1 |  | > 100 | > 100 | > 100 | > 100 |  |  | > 100 | > 100 |  | > 100 |  | 
7 | O=C(O)Cc1ccc(N2N=C(c3ccccc3)CC2=O)cc1 | > 100 | > 100 | > 100 |  |  | > 100 |  | > 100 |  | > 100 | > 100 | > 100 | 
8 | COC(=O)NCCc1[nH]nc2c1C(=O)C=C(OC)C2=O | 48.1 |  | 50.1 | > 100 | 31.4 |  | 27.7 | 46.4 | 33.7 | 52.8 | > 100 | 88.1 | 
9 | Nc1nc2c(ncn2CCOC(c2ccccc2)P(=O)(O)O)c(=O)[nH]1 (stereo not given) |  | > 100 | > 100 | > 100 | > 100 |  |  |  | > 100 | > 100 | > 100 |  | 
10 | Cn1c(C(C#N)c2cc(Cl)ncn2)nc2ccccc21 (stereo not given) |  | > 100 | > 100 | > 100 | > 100 | > 100 | > 100 | > 100 | > 100 | > 100 | > 100 |  | 
11 | Cc1ccc(/C=C2\NC(=S)N(CN3CCOCC3)C2=O)cc1 | > 100 | > 100 | > 100 | > 100 |  |  | > 100 | > 100 | > 100 | > 100 | > 100 | > 100 | 
12 | N#CC1C(=O)Nc2sc(C(=O)c3ccc(Br)cc3)c(N)c2C12CCCCC2 (stereo not given) | > 100 | 63.6 | > 100 | > 100 | 31.8 | > 100 | 58.9 | > 100 | > 100 | 40.1 | > 100 |  | 
13 | C=C(C)CCC1CCCCC(CN(C)C)C1=O (stereo not given) | > 100 | > 100 | > 100 | > 100 |  | > 100 | > 100 | > 100 | > 100 | > 100 | > 100 | > 100 | 
14 | Cc1cc2c(cc1O)CC[C@@H]1[C@@H]2CC[C@]2(C)[C@@H](O)CC[C@@H]12 | 26.1 | 37.9 | 37.6 | > 100 |  | 38.9 | 3.65 | 17.7 | 27 | 32.5 | 91.5 | 7.17 | 1.8
15 | OCCSCCCSCCO | > 100 |  | > 100 | > 100 |  | > 100 |  | > 100 | > 100 | > 100 | > 100 |  | 
16 | OC(c1cccs1)c1cc2ccccc2s1 (stereo not given) | > 10 |  | > 10 | > 10 | > 10 | > 10 | > 10 | > 10 | > 10 | > 10 | > 10 | > 10 | 
17 | C[C@@]12CC[C@H]3[C@@H]4CCC(=O)N[C@@]4(C)CC[C@@H]3[C@@]1(C)CC[C@H](OC(=O)Cc1ccc(N(CCCl)CCCl)cc1)C2 | 24.7 | 32.8 | 33.3 | 30.4 | 32 |  |  | 38.8 | 27.8 | 38.3 |  |  | 
18 | CCSc1nc2sc(C)c(C)c2c(=O)n1-c1ccc(C(=O)O)cc1 |  | > 100 | > 100 | > 100 | > 100 |  |  | > 100 | > 100 | > 100 | > 100 |  | 
19 | CCOC(=O)c1c(C)n(Cc2ccccc2)c2c1cc(O)c1[nH]c3c(c12)CCCC3 | 13.3 |  | 6.43 | 19.6 |  |  | 24.4 | 12.6 | 16.8 | 18.9 | 23.6 | 7.97 | 
20 | Cc1cc(Cc2cc(C)c(NC(=O)C(=O)C3C(=O)NC(=S)NC3=O)c(C(C)C)c2)cc(C(C)C)c1NC(=O)C(=O)C1C(=O)NC(=S)NC1=O |  | > 100 | > 100 | > 100 | > 100 |  |  | > 100 | > 100 | > 100 | > 100 |  | 
21 | O=C(O)c1c(CC(Cc2ccc3c(c2)CCCC3)C(=O)O)ccc2c1CCCC2 (stereo not given) |  | > 100 | > 100 | > 100 | > 100 | > 100 | > 100 | > 100 | > 100 | > 100 | > 100 | > 100 | 
22 | CN(C)CCNCc1c2ccccc2c(CNCCN(C)C)c2ccccc12 | 79.8 | 55.9 | > 100 | > 59.9 | 62.7 |  |  | 8.31 | 38.7 | 22.3 |  |  | 
23 | CN(C)C(=O)CC(C(=O)O)c1c[nH]c2ccccc12 (stereo not given) |  | > 100 | 41.6 | > 100 | > 100 |  |  | > 100 | > 100 | > 100 | > 100 |  | 
